Experimental data: patent publication US6693100B1, “Pharmaceutical compositions for treating psoriasis” (priority 1999, dated 2004)

Experiments:
[1] = tested on: psoriasis; details: cited from earlier work
[2] = tested on: refractory psoriasis; assay: Clinical study of efficacy of dexrazoxane in patients with refractory psoriasis, Psoriasis Area and Severity Index (Example 4); type: in vivo, human
Description: (§1) The efficacy and tolerability of dexrazoxane in patients with refractory psoriasis was assessed in a clinical study.
(§2) After screening, eligible patients received 500 mg of Cardioxane® by intravenous infusion on each of two consecutive days. They were reviewed 7 and 14 days after the first day of treatment. The patients received the second cycle of treatment, which consisted of either 500 mg Cardioxane® by intravenous infusion, on each of two consecutive days (days 15 and 16, in this case), if a complete response had occurred, or 1000 mg Cardioxane® by intravenous infusion, on each of two consecutive days (days 15 and 16, in this case), if an incomplete response had occurred.
(§3) A third cycle of treatment was given after the same interval (days 29 and 30, in this case).
The primary efficacy parameter was the percentage reduction in skin area and severity affected by psoriasis, as determined by the standardised assessment of the Psoriasis Area and Severity Index (PASI).
Seven patients have been enrolled in the study and all patients have completed a follow-up period of two weeks. At the beginning of the treatment, the PASI-scores ranged between 23.1 and 44.1, with a mean score of 31.9. […] At the end of the third treatment cycle, the PASI-scores ranged between 3.4 and 29.7, with a mean score of 11.4.

[3] = pH of reconstituted and diluted Cardioxane solution for infusion; type: physicochemical
Description: Cardioxane® is available in 36 ml brown glass vials. Each vial contains 500 mg lyophilised active substance, the hydrochloric acid salt of dexrazoxane. For reconstitution the contents of each vial is dissolved in 25 ml sterile water for injection. The contents will dissolve within a few minutes under gentle agitation. The pH of the resulting solution is approx. pH 1.6.
For infusion the solution needs to be further diluted. Preferred are sodium lactate UP (0.16M) or Ringer-Lactate BP for infusion. Both solutions give an infusion fluid with an acceptable pH.

[4] = human, in vivo
Description: as §1, §2, §3
This neutropenia disappeared after another week, and the counts were normal from then on. All other patients had normal white blood cell counts. The assessment of toxicity was according to the WHO criteria: grade 0 (non-toxic, a count of more than 4×10E9 leukocytes per liter), grade 1 (mild) to grade 4 (most severe).

[5] = tested on: psoriasis; assay: Clinical trial case reports: Cardioxane intravenous drip infusion in individual psoriasis patients (Examples 1-3); type: in vivo, human
Source text: The disease started after mental stress (loss of near person) with a rash on the hairy part of the head. From the very onset of the disease the patient received intensive treatment with vitamins B12, B6, B2, and calcium. They had artificial hyperthermia with pyrogenal injections, methotrexate, various ointments (e.g. salicylic ointment) under a dermatologist's observation at a specialised clinic. In spite of the treatment the psoriatic rash was spreading over the trunk, upper and lower extremities and it was accompanied by a marked general itch. The patient had practically no remissions. Concurrent diseases were grade II hypertension and chronic cholecystopancreatitis.
At the first examination the patient complained about itching all over the body (resulting in insomnia) and pain in the large joints (mainly knees). The skin on the back, buttocks, chest and arms was covered with a erythematous papular and pustular rash with a white coating (desquamation). A similar though less intense rash was seen on the legs. The patient's general status, the haematological and biochemical profiles were within normal.
On the first and the second day of the treatment cycle the patient received the first doses of Cardioxane® (dexrazoxane.HCl) at 500 mg each day by intravenous drip infusion. […] The itch practically disappeared after the next dose of Cardioxane® therapy at 1000 mg on day 16. […] The patient slept well for the first time in a long disease period. The effect was still preserved at the examination on day 29 and day 30 when the patient was given the last two injections of Cardioxane® at 1500 mg each.
This patient had suffered from generalised psoriasis for 25 years. The rash first appeared on the head and the right upper limb to spread over the trunk and upper limbs later. The patient had received therapies similar to the patient described in Example 1. In addition they received UV therapy, peloids, sulfurated hydrogen baths, but without lasting effect. The patient had no concurrent illness except asthenia, sinus arrhythmia and left ventricular hypertrophy. The skin on the back, lumbar region and shoulders was covered with merged erythematous papular, bullar and desquamating lesions. The rash on the lateral chest walls and on the lower limbs was mainly erythematous and less marked. The skin lesions covered about 50% of the body surface.
The patient was given 6 intravenous drip injections with Cardioxane® according to the following schedule:
On day 1 and day 2 each 500 mg Cardioxane®,
on day 15 and day 16 each 1000 mg Cardioxane®,
and on day 29 and day 30 each 1500 mg Cardioxane®.
The psoriatic rash appeared on the hairy part of the head and neck to spread further over the body. The patient received insolation with but a temporary effect. The patient had had 4 hospitalisations to receive therapy with vitamins, calcium, and various ointments.
At the first examination on day 1 the patient presented with continuous erythematous papular psoriatic rash with desquamation on the front abdominal wall (below the submammal fold), the inguioileac, the lumbosacral, the gluteal regions and the lower limbs, severe itch, and scraping tubular breathing (asthmatic bronchitis). Of note was also a marked increase in the eosinophile count.
The patient received 6 intravenous drip injections of Cardioxane® according to the protocol given in Example 2. […] The lower half of the abdomen as well as the upper gluteal quadrants were practically free of rash.

[6] = tested on: refractory psoriasis; assay: Separate longer study of three patients with refractory psoriasis; type: in vivo, human
Source text: This patient, who previously suffered distressing refractory psoriasis, can be treated with conventional emollients. Dexrazoxane therefore has the potential to provide remarkable long term relief from refractory psoriasis and a low level of side effects.

[7] = British Journal of Dermatology (1980) 102, 307
[8] = at 11 weeks after the start of the therapy
[9] = Example 3 patient, examination on day 30
[10] = patients of the clinical trial (general statement)

In the case of `CC(CN1CC(=O)NC(=O)C1)N1CC(=O)NC(=O)C1` (racemic) [razoxane, 1,2-bis(3,5-dioxopiperazin-1-yl)-propane], the efficacy in psoriasis [1, 7] is listed as “relatively good efficacy”, the “tolerability in psoriasis patients” value [1, 7] is listed as “good tolerability” and the “most frequently seen side effect” value ([1]; Horton and Wells, British Journal of Dermatology (1983) 109, 669-673) is listed as “neutropenia”.
With `CC(CN1CC(=O)NC(=O)C1)N1CC(=O)NC(=O)C1` (stereo not drawn) [Cardioxane] the “maximum reduction in PASI” value [2, 8] was 88%, the “mean reduction in PASI” value [2, 8] was 65% and the “relief of symptoms associated with psoriatic arthritis” value ([2]; compared to treatment with cyclosporine A used previously in the clinic) was “better and faster relief”. For the same compound, the remission ([2]; one month after the last injection) was “most of the patients are still in remission”, the PASI score ([2]; patient 1/HH, visit v1 (start of treatment)) was 23.1 and the PASI score ([2]; patient 1/HH, visit v4) was 11.3. For the same compound, the PASI score ([2]; patient 1/HH, visit v7) was 7.7, the PASI score ([2]; patient 1/HH, visit v9) was 6.5 and the PASI score ([2]; patient 1/HH, visit v10) was 6.5. For the same compound, the PASI score ([2]; patient 1/HH, visit v11) was 5.6, the PASI score ([2]; patient 2/MR, visit v1 (start of treatment)) was 43.6 and the PASI score ([2]; patient 2/MR, visit v4) was 36.3. The PASI score ([2]; patient 2/MR, visit v7) was 23.1, the PASI score ([2]; patient 2/MR, visit v9) was 15.6 and the PASI score ([2]; patient 2/MR, visit v10) was 12.3. It also gave a PASI score ([2]; patient 2/MR, visit v11) of 14.0, a PASI score ([2]; patient 3/MZ, visit v1 (start of treatment)) of 29.8 and a PASI score ([2]; patient 3/MZ, visit v4) of 18.4. For the same compound, the PASI score ([2]; patient 3/MZ, visit v7) was 11.6, the PASI score ([2]; patient 3/MZ, visit v9) was 9.7 and the PASI score ([2]; patient 3/MZ, visit v10) was 7.1. For the same compound, the PASI score ([2]; patient 3/MZ, visit v11) was 6.5, the PASI score ([2]; patient 4/PH, visit v1 (start of treatment)) was 27.0 and the PASI score ([2]; patient 4/PH, visit v4) was 18.6. It also gave a PASI score ([2]; patient 4/PH, visit v7) of 13.5, a PASI score ([2]; patient 4/PH, visit v9) of 10.8 and a PASI score ([2]; patient 4/PH, visit v10) of 12.0. It also gave a PASI score ([2]; patient 4/PH, visit v11) of 5.2, a PASI score ([2]; patient 5/PZ, visit v1 (start of treatment)) of 29.1 and a PASI score ([2]; patient 5/PZ, visit v4) of 16.9. It also gave a PASI score ([2]; patient 5/PZ, visit v7) of 9.9, a PASI score ([2]; patient 5/PZ, visit v9) of 9.3 and a PASI score ([2]; patient 5/PZ, visit v10) of 7.8. For the same compound, the PASI score ([2]; patient 5/PZ, visit v11) was 3.4, the PASI score ([2]; patient 6/FJ, visit v1 (start of treatment)) was 44.1 and the PASI score ([2]; patient 6/FJ, visit v4) was 24.8. It also gave a PASI score ([2]; patient 6/FJ, visit v7) of 20.3, a PASI score ([2]; patient 6/FJ, visit v9) of 15.6 and a PASI score ([2]; patient 6/FJ, visit v10) of 15.6. The PASI score ([2]; patient 6/FJ, visit v11) was 15.3, the PASI score ([2]; patient 7/DJ, visit v1 (start of treatment)) was 26.6 and the PASI score ([2]; patient 7/DJ, visit v4) was 23.6. The PASI score ([2]; patient 7/DJ, visit v7) was 23.0, the PASI score ([2]; patient 7/DJ, visit v9) was 21.8 and the PASI score ([2]; patient 7/DJ, visit v10) was 28.5. For the same compound, the PASI score ([2]; patient 7/DJ, visit v11) was 29.7, the “mean PASI score at the end of the third treatment cycle” value ([2]; seven patients, end of third treatment cycle) was 11.4 and the “response to the treatment” value ([2]; seven patients, one patient absolutely resistant) was “Most of the patients did respond to the treatment”. For the same compound, the “pH of the resulting solution” value ([3]; 500 mg vial dissolved in 25 ml sterile water for injection) was about 1.6, the pH ([3]; 4 reconstituted vials diluted with 100 ml Ringer-Lactate BP, total 200 ml) was 2.14 and the pH ([3]; 4 reconstituted vials diluted with 100 ml Sodium lactate UP (0.16 M), total 200 ml) was 3.80. The pH ([3]; 4 reconstituted vials diluted with 300 ml Ringer-Lactate BP, total 400 ml) was 2.85, the pH ([3]; 4 reconstituted vials diluted with 300 ml Sodium lactate UP (0.16 M), total 400 ml) was 4.47 and the pH ([3]; 4 reconstituted vials diluted with 400 ml Ringer-Lactate BP, total 500 ml) was 3.19. The pH ([3]; 4 reconstituted vials diluted with 500 ml Ringer-Lactate BP, total 600 ml) was 3.45, the pH ([3]; 4 reconstituted vials diluted with 500 ml Sodium lactate UP (0.16 M), total 600 ml) was 4.66 and the “leukocyte count in the patient with leukopenia” value [4] was “approximately 3×10E9 cells per liter”. The leukopenia incidence [4] was “only one was diagnosed with mild, reversible leukopenia”, the serious adverse events [4] was “no serious adverse events were reported” and the “toxicity grade according to World Health Organisation criteria” value [4] was “grade I”. For the same compound, the “vomiting, nausea, or diarrhoea” value [4] was “No cases of vomiting, nausea, or diarrhoea were recorded”, the arthralgia ([5]; Example 1 patient, after 1000 mg dose on day 16) was “complete disappearance of anthralgia” and the adverse events ([5]; Example 1 patient, after any of the injections (500, 1000, 1500 mg)) was “no adverse events”. The itch ([5]; Example 1 patient, 500 mg i.v. on days 1 and 2) was “amelioration of itch several hours after the first”, the side effects ([5]; Example 2 patient, 6 i.v. drip injections 500-1500 mg) was “no side effects” and the erythema ([5]; Example 2 patient, examination on day 15 and day 29) was “mild amelioration of erythema on the back”. For the same compound, the skin itch ([5]; Example 3 patient, at 2 or 3 days after the first injection) was “complete disappearance of skin itch”, the adverse events ([5]; Example 3 patient, examination on day 15) was “no adverse events” and the adverse events [5, 9] was “No adverse events were reported”. The “complete regression of the rash” value [5, 9] was “about 80%”.
In the case of `CC(CN1CC(=O)NC(=O)C1)N1CC(=O)NC(=O)C1` (stereo not drawn) [dexrazoxane, d-isomer of 1,2-bis(3,5-dioxopiperazin-1-yl)-propane], the “duration of relief from refractory psoriasis” value ([6]; some patients (summary statement)) is reported as “up to at least one year”, the “long term freedom from lesions and symptoms” value ([6]; three patients with refractory psoriasis, after one year) is reported as “one patient is still relatively free of lesions and symptoms after one year” and the serious side effects [4] is reported as “No serious side effects have been reported”. For the same compound, the itch [5, 10] was “diminished several hours after the first administration” and the “regression of the skin lesions” value [5, 10] was 25-30%.
